Drawing on patent US20240226343A1, “NEUROPEPTIDE Y1 RECEPTOR (NPY1R) TARGETED THERAPEUTICS AND USES THEREOF” (RADIONETICS ONCOLOGY, INC., priority 2022, published 2024), this text covers Ki for 19 compounds.

One test deals with T1, hNPY1R (Homo sapiens, UniProt P25929).
T1 construct: SK-N-MC cells endogenously expressing the NPY1R receptor; endogenous in cells; host or cells: SK-N-MC cells (crude membrane fractions)
T1 sequence (P25929 1-384): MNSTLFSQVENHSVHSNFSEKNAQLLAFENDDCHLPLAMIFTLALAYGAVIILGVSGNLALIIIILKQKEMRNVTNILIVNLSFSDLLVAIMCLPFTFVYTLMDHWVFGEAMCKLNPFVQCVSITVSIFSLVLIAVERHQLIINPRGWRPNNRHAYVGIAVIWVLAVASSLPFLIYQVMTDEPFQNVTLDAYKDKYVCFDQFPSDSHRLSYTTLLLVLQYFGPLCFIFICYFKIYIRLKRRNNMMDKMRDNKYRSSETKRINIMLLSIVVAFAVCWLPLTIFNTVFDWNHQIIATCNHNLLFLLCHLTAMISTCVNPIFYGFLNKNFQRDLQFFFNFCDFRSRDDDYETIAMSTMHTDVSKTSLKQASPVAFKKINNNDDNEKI
As to the kind of experiment: NPY1R binding assay: SK-N-MC membranes, [125I]-Peptide YY (human) competition. Conditions: data obtained after 60 minutes at 37° C.; SK-N-MC membranes; [125I]-Peptide YY 0.05 nM; read-out: hNPY1R binding Ki* †. As to the method: Crude membrane fractions are prepared from SK-N-MC cells endogenously expressing the NPY1R receptor. The cells are grown to 85-100% confluence on standard tissue culture dishes in Eagle's Minimum Essential Medium supplemented with 10% dialyzed FBS. To prepare membranes, cells are scraped and collected in 1× Dulbecco's phosphate buffered saline and then pelleted at 1000 RPM's. The cell pellet is reconstituted in membrane preparation buffer (20 mM HEPES, 6 mM MgCl2 and 1 mM EGTA, protease inhibitor tablets, pH 7.4) and placed in a cell disruption vessel at 1000 PSI for 30 minutes on ice. The pressurized contents are then released and spun down at 1000 RPMs and the supernatant is collected and further centrifuged at 15,000 RPMs to pellet the membranes. The membrane pellet is resuspended in membrane preparation buffer, snap frozen and stored at −80° C. for later use.
[…] Assay contents are then filtered through unifilter GF/C microplates and washed with 9×400 μl of cold wash buffer (25 mM HEPES, 5 mM MgCl2, 1 mM CaCl2), 500 mM NaCl, 0.1% Tween-20, pH 7.4). Assay plates are read using a Top Count NXT and Ki values for compounds are determined using a GraphPad Prism 6 non-linear regression analysis.
Broadly, the Ki is a dissociation constant, usually derived from enzyme kinetics or from competition with a known ligand. Turning to `CCC(=O)NCCNC(=O)/N=C(/N)NCCC[C@@H](NC(=O)C(c1ccccc1)c1ccc(NC(=O)CCOCCOCCOCCOCCNC(=O)CN2CCN(CC(=O)O)CCN(CC(=O)O)CCN(CC(=O)O)CC2)cc1)C(=O)NCc1ccc(O)cc1` (single isomer, unassigned) [Compound 102A], the Ki fell in the range of 10 to 100 nM.

On to `CCC(=O)NCCNC(=O)/N=C(/N)NCCC[C@@H](NC(=O)C(c1ccccc1)c1cccc(OCCCCNC(=O)CCC(=O)N(CC(=O)O)C2CCN(C(=O)CN3CCN(CC(=O)O)CCN(CC(=O)O)CCN(CC(=O)O)CC3)CC2)c1)C(=O)NCc1ccc(O)cc1` (single isomer, unassigned) [Compound 117B], for which the inhibition constant Ki was below 10 nM. Consider `CCC(=O)NCCNC(=O)/N=C(/N)NCCC[C@@H](NC(=O)C(c1ccccc1)c1cccc(OCCCCNC(=O)CN2CCN(C(=O)CN3CCN(CC(=O)O)CCN(CC(=O)O)CCN(CC(=O)O)CC3)CC2)c1)C(=O)NCc1ccc(O)cc1` (single isomer, unassigned) [Compound 118A], for which the Ki is below 10 nM. Same read-out and setting: then `CCC(=O)NCCNC(=O)/N=C(/N)NCCC[C@@H](NC(=O)C(c1ccccc1)c1cccc(OCCCCNc2c(NCCNC(=O)CN3CCN(CC(=O)O)CCN(CC(=O)O)CCN(CC(=O)O)CC3)c(=O)c2=O)c1)C(=O)NCc1ccc(O)cc1` (single isomer, unassigned) [Compound 111B], with below 10 nM. On to `CCC(=O)NCCNC(=O)/N=C(/N)NCCC[C@@H](NC(=O)C(c1ccccc1)c1ccc(NCCCNC(=O)CCOCCOCCNC(=O)CN2CCN(CC(=O)O)CCN(CC(=O)O)CCN(CC(=O)O)CC2)cc1)C(=O)NCc1ccc(O)cc1` (single isomer, unassigned) [Compound 103B], for which the Ki is below 10 nM. Turning to `CCC(=O)NCCNC(=O)/N=C(/N)NCCC[C@@H](NC(=O)C(c1ccccc1)c1ccc(NC(=O)CCOCCOCCOCCOCCNC(=O)CN2CCN(CC(=O)O)CCN(CC(=O)O)CCN(CC(=O)O)CC2)cc1)C(=O)NCc1ccc(O)cc1` (single isomer, unassigned) [Compound 102B], the inhibition constant (Ki) is 10 to 100 nM. Turning to `CCC(=O)NCCNC(=O)/N=C(/N)NCCC[C@@H](NC(=O)C(c1ccccc1)c1ccc(NCCCNc2c(NCCNC(=O)CN3CCN(CC(=O)O)CCN(CC(=O)O)CCN(CC(=O)O)CC3)c(=O)c2=O)cc1)C(=O)NCc1ccc(O)cc1` (single isomer, unassigned) [Compound 124B], the Ki is below 10 nM. On the same count and under the same terms, as for `CCC(=O)NCCNC(=O)/N=C(/N)NCCC[C@@H](NC(=O)C(c1ccccc1)c1cccc(OCCOCCOCCNC(=O)CN2CCN(CC(=O)O)CCN(CC(=O)O)CCN(CC(=O)O)CC2)c1)C(=O)NCc1ccc(O)cc1` (stereo partly drawn) [Compound 105, 2,2′,2″-(10-(2-((2-(2-(2-(3-((4R,Z)-9-amino-4-((4-hydroxybenzyl)carbamoyl)-2,11,16-trioxo-1-phenyl-3,8,10,12,15-pentaazaoctadec-9-en-1-yl)phenoxy)ethoxy)ethoxy)ethyl)amino)-2-oxoethyl)-1,4,7,10-tetraazacyclododecane-1,4,7-triyl)triacetic acid], the figure is below 10 nM.

The test is the same for the next values; noted with them: data obtained after 120 minutes at rt; SK-N-MC membranes; [125I]-Peptide YY; read-out: hNPY.R binding Ki* ††.
For `CCC(=O)NCCNC(=O)/N=C(/N)NCCC[C@@H](NC(=O)C(c1ccccc1)c1cccc(OCCCCNC(=O)NCCONC(=O)CN2CCN(CC(=O)O)CCN(CC(=O)O)CCN(CC(=O)O)CC2)c1)C(=O)NCc1c(F)cc(O)cc1F` (single isomer, unassigned) [Compound 168], the inhibitory constant (Ki) was below 10 nM. With `CCC(=O)NCCNC(=O)/N=C(/N)NCCC[C@@H](NC(=O)C(c1ccccc1)c1ccc(NCCCNC(=O)[C@H]2CC[C@H](CNC(=O)CN3CCN(CC(=O)O)CCN(CC(=O)O)CCN(CC(=O)O)CC3)CC2)cc1)C(=O)NCc1ccc(O)cc1` (stereo partly drawn) [Compound 158, 2,2′,2″-(10-(2-((((1R,4r)-4-((3-((4-((4R,Z)-9-amino-4-((4-hydroxybenzyl)carbamoyl)-2,11,16-trioxo-1-phenyl-3,8,10,12,15-pentaazaoctadec-9-en-1-yl)phenyl)amino)propyl)carbamoyl)cyclohexyl)methyl)amino)-2-oxoethyl)-1,4,7,10-tetraazacyclododecane-1,4,7-triyl)triacetic acid], the Ki is below 10 nM.

Consider `CCC(=O)NCCNC(=O)/N=C(/N)NCCC[C@@H](NC(=O)C(c1ccccc1)c1cccc(OCCCCNC(=O)[C@@H](CCCNC(=N)N)NC(=O)CCNC(=O)CN2CCN(CC(=O)O)CCN(CC(=O)O)CCN(CC(=O)O)CC2)c1)C(=O)NCc1ccc(O)cc1` (single isomer, unassigned) [Compound 141A], for which the inhibitory constant (Ki) was below 10 nM.

With `CCC(=O)NCCNC(=O)/N=C(/N)NCCC[C@@H](NC(=O)C(c1ccccc1)c1cccc(OCCCCNC(=O)c2ccc(CNC(=O)CN3CCN(CC(=O)O)CCN(CC(=O)O)CCN(CC(=O)O)CC3)cc2)c1)C(=O)NCc1ccc(O)cc1` (stereo partly drawn) [Compound 123, 2,2′,2″-(10-(2-((4-((4-(3-((4R,Z)-9-amino-4-((4-hydroxybenzyl)carbamoyl)-2,11,16-trioxo-1-phenyl-3,8,10,12,15-pentaazaoctadec-9-en-1-yl)phenoxy)butyl)carbamoyl)benzyl)amino)-2-oxoethyl)-1,4,7,10-tetraazacyclododecane-1,4,7-triyl)triacetic acid], the Ki was below 10 nM. The same measure, in the same setting: as for `CCC(=O)NCCNC(=O)/N=C(/N)NCCC[C@@H](NC(=O)C(c1ccccc1)c1cccc(OCCCCNC(=O)CCC(=O)N(CC(=O)O)C2CCN(C(=O)CN3CCN(CC(=O)O)CCN(CC(=O)O)CCN(CC(=O)O)CC3)CC2)c1)C(=O)NCc1ccc(O)cc1` (single isomer, unassigned) [Compound 117B], the figure is below 10 nM.

Consider `CCC(=O)NCCNC(=O)/N=C(/N)NCCC[C@@H](NC(=O)C(c1ccccc1)c1cccc(OCCCCNC(=O)CN2CCN(C(=O)CN3CCN(CC(=O)O)CCN(CC(=O)O)CCN(CC(=O)O)CC3)CC2)c1)C(=O)NCc1ccc(O)cc1` (single isomer, unassigned) [Compound 118A], for which the Ki was below 10 nM. Turning to `CCC(=O)NCCNC(=O)/N=C(/N)NCCC[C@@H](NC(=O)C(c1ccccc1)c1cccc(OCCCCNc2c(NCCNC(=O)[C@@H](CN)NC(=O)CN3CCN(CC(=O)O)CCN(CC(=O)O)CCN(CC(=O)O)CC3)c(=O)c2=O)c1)C(=O)NCc1ccc(O)cc1` (stereo in doubt) [Compound 115B-In, Indium (III) 2,2′,2″-(10-(2-(((R)-3-amino-1-((2-((2-((4-(3-((R,Z)-9-amino-4-((4-hydroxybenzyl)carbamoyl)-2,11,16-trioxo-1-phenyl-3,8,10,12,15-pentaazaoctadec-9-en-1-yl)phenoxy)butyl)amino)-3,4-dioxocyclobut-1-en-1-yl)amino)ethyl)amino)-1-oxopropan-2-yl)amino)-2-oxoethyl)-1,4,7,10-tetraaza-cyclododecane-1,4,7-triyl)triacetate], the Ki is below 10 nM. In the case of `CCC(=O)NCCNC(=O)/N=C(/N)NCCC[C@@H](NC(=O)C(c1ccccc1)c1cccc(OCCCCNC(=O)[C@@H](CO)NC(=O)CCNC(=O)CN2CCN(CC(=O)O)CCN(CC(=O)O)CCN(CC(=O)O)CC2)c1)C(=O)NCc1c(F)cc(O)cc1F` (single isomer, unassigned) [Compound 165A], the inhibitory constant (Ki) was below 10 nM.

Regarding `CCC(=O)NCCNC(=O)/N=C(/N)NCCC[C@@H](NC(=O)C(c1ccccc1)c1ccc(NCCCNc2c(NCCNC(=O)CN3CCN(CC(=O)O)CCN(CC(=O)O)CCN(CC(=O)O)CC3)c(=O)c2=O)cc1)C(=O)NCc1ccc(O)cc1` (single isomer, unassigned) [Compound 124B], the Ki was below 10 nM.

Take `CCC(=O)NCCNC(=O)/N=C(/N)NCCC[C@@H](NC(=O)C(c1ccccc1)c1ccc(NCCCNc2c(NCCNC(=O)[C@@H](CN)NC(=O)CN3CCN(CC(=O)O)CCN(CC(=O)O)CCN(CC(=O)O)CC3)c(=O)c2=O)cc1)C(=O)NCc1ccc(O)cc1` (single isomer, unassigned) [Compound 137B]: the inhibition constant Ki is below 10 nM. On the same count and under the same terms, then `CCC(=O)NCCNC(=O)/N=C(/N)NCCC[C@@H](NC(=O)C(c1ccccc1)c1cccc(OCCCCNc2c(NCCONC(=O)CN3CCN(CC(=O)O)CCN(CC(=O)O)CCN(CC(=O)O)CC3)c(=O)c2=O)c1)C(=O)NCc1c(F)cc(O)cc1F` (single isomer, unassigned) [Compound 169], with below 10 nM; and `N=C(N)NCCC[C@@H](NC(=O)[C@@H](c1ccccc1)c1cccc(OCCCCNC(=O)[C@H](N)CCCCNC(=O)CN2CCN(CC(=O)O)CCN(CC(=O)O)CCN(CC(=O)O)CC2)c1)C(=O)NCc1ccc(O)cc1` [Compound 138, 2,2′,2″-(10-(2-(((R)-5-amino-6-((4-(3-((S)-2-(((R)-5-guanidino-1-((4-hydroxybenzyl)amino)-1-oxopentan-2-yl)amino)-2-oxo-1-phenylethyl)phenoxy)butyl)amino)-6-oxohexyl)amino)-2-oxoethyl)-1,4,7,10-tetraazacyclododecane-1,4,7-triyl)triacetic acid], with 10 to 100 nM; and `CCNC(=O)/N=C(/N)NCCC[C@@H](NC(=O)C(c1ccccc1)c1cccc(OCCCCNC(=O)[C@@H](Cc2ccc(-c3ccccc3)cc2)NC(=O)[C@@H](CN)NC(=O)CN2CCN(CC(=O)O)CCN(CC(=O)O)CCN(CC(=O)O)CC2)c1)C(=O)NCc1ccc(O)cc1` (single isomer, unassigned) [Compound 148A], with below 10 nM. `CCC(=O)NCCNC(=O)/N=C(/N)NCCC[C@@H](NC(=O)C(c1ccccc1)c1ccc(NCCCNC(=O)[C@H](N)CCCCNC(=O)CN2CCN(CC(=O)O)CCN(CC(=O)O)CCN(CC(=O)O)CC2)cc1)C(=O)NCc1ccc(O)cc1` (single isomer, unassigned) [Compound 132A]: the Ki was below 10 nM.
